Data reported in US20240018158A1, “BRM TARGETING COMPOUNDS AND ASSOCIATED METHODS OF USE” (Prelude Therapeutics Incorporated, priority 2020, published 2024).

Experiments:
[1] = tested on: NCIH1693 cells; test: Cell proliferation assay (ATPlite) in NCIH1693 cells; type: cell-based; settings: H1693 cells, day 4; read-out: IC50 (PRO_H1693) antiproliferation potency
Experimental: One thousand NCIH1693 or NCIH1703 cells per well were seeded in 96 well plate and incubated at 37° C. for 5 hrs. A series of three-fold dilution of compounds from 10 mM stock concentration were added to the cells by using digital Dispenser D300-Tecan, keeping highest concentration 10 μM and normalizing with DMSO at the highest dispensed volume). Cells incubated with DMSO was used as a vehicle control. After compound treatment plates were incubated at 37° C. for 4 days and cell viability was measured by measuring ATP content from the cell lysate using ATPlite Luminescence assay system (PerkinElmer Cat. no #6016941). Percentage of viable cells, relative to DMSO vehicle control and maximum inhibition, was calculated and plotted in Graphpad Prism ([Inhibitor] vs. normalized response−Variable slope) to determine cell proliferation IC50 values on day 4.

[2] = target: SMARCA4 (Homo sapiens (Human), UniProt P51532); test: In Cell Western SMARCA4 degradation in NCIH520 cells; type: cell-based; settings: for DC50: read-out: DC50 (SM4_H520) SMARCA4 degradation potency
Sequence of SMARCA4 (P51532 whole entry): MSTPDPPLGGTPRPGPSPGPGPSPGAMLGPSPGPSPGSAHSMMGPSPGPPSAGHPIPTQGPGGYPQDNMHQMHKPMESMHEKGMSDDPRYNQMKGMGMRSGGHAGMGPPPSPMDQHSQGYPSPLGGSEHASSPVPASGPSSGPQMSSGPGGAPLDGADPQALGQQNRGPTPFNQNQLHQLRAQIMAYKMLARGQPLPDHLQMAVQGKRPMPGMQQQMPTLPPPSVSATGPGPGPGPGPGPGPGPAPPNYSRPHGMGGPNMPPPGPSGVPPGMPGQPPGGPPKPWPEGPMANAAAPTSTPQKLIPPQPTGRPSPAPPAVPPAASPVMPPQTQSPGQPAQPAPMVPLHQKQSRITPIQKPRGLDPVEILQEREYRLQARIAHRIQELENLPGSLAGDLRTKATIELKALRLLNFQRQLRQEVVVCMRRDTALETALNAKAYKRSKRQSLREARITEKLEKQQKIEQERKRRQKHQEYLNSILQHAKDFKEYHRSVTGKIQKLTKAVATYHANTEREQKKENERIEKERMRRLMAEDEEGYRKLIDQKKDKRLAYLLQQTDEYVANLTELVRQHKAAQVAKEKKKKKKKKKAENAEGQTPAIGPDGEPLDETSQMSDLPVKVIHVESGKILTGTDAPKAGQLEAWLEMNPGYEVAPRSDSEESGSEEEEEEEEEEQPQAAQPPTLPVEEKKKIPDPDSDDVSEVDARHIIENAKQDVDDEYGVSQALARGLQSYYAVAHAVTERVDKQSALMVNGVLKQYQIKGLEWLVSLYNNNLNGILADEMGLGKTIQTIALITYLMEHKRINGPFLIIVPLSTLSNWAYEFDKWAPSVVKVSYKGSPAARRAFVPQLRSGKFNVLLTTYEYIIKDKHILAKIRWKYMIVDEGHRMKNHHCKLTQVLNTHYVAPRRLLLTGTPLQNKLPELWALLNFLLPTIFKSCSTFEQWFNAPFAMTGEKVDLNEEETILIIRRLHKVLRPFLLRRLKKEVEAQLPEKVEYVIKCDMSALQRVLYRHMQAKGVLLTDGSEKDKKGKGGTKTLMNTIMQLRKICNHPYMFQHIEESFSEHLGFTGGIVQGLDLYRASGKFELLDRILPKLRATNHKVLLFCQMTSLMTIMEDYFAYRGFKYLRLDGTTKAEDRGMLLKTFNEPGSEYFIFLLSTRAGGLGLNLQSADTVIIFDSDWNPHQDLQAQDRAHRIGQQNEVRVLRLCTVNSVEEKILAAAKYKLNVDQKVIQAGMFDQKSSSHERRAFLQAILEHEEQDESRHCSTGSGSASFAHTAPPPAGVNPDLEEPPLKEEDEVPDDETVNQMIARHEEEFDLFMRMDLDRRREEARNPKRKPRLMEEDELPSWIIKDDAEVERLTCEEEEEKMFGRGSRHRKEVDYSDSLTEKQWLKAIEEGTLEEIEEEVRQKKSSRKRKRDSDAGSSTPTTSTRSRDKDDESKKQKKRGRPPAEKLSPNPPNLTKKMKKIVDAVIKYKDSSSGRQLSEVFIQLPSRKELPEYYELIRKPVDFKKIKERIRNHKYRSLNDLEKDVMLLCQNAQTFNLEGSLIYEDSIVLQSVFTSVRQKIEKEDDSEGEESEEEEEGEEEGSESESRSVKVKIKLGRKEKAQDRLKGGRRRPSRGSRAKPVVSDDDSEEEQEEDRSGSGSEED
Experimental: (§1) Compound titration and cell culture: Compounds were dissolved in DMSO to make 10 mM stock and 3-fold series dilutions were further conducted keeping the highest concentration 10 μM. NCIH1693 and NCIH520 cells were maintained in PRMI 1640 medium (Corning Cellgro, Catalog #:10-040-CV) supplemented with 10% v/v FBS (GE Healthcare, Catalog #: SH30910.03) by splitting 1:3 twice a week.
(§2) To determine SMACRA2 and SMARCA4 protein degradation DC50 values in NCIH1693 and NCIH520 cells by In Cell Western (ICW) analysis. Cells were trypsinized and 30 thousand cells/well were seeded into 384-well plates and were allowed to grow for 5 hours at 37° C. Eight-point, 3-fold serial dilutions of compounds from 10 mM stocks were added to the cells (using digital Dispenser D300-Tecan, keeping highest concentration 10 μM and normalizing with DMSO at the highest dispensed volume). Plates were incubated at 37° C. for overnight (maximum 18 hours). Cells incubated with DMSO was used as a vehicle control.
(§3) To perform In Cell Western, medium was removed from all the wells leaving cells attached to the surface. After removing the medium, cells were fixed within the plates with 40 μL of 4% formaldehyde by incubating at room temperature for 30 minutes, and then permeabilized with wash buffer (1×PBS with 0.1% Triton X-100) by washing the plate 5 times with 50 μL/well. Before labeling with primary antibodies, cells were blocked with 30 μL/well of blocking buffer (Licor Odyssey blocking buffer PBS #927-40000) for 30 minutes at room temperature. To measure SMARCA2 or SMARCA4 proteins, cells were labeled with 20 μL/well of anti SMARCA2 or SMACRA4 antibodies (Cell Signaling BRM #11966S 1:1000, Cell Signaling BRG #49360S 1:1000) diluted in Li-Cor Odyssey blocking buffer-PBS #927-40000, followed by overnight incubation at 4° C.
(§4) The next day, plates were washed 5×5 minutes with 50 μL/well of washing buffer to remove all the excess primary antibody and then 20 μL from a mixture of secondary antibody and fluorescent DNA specific dye (Goat anti rabbit 1:500 IRDye-800CW #92632211, and DRAQ5™ 1:2000-#ab108410) was added to each well. Plates were incubated for 1 hour at room temperature with gentle rocking. Cells were washed 5 times with 50 μL/well wash buffer, followed by one last wash with DI water, followed by 10 mins drying at 37° C. oven before scanning. Plates were scanned using Li-Cor Odyssey CLx imaging system to acquire integrated intensities at 700 nm and 800 nm. SMARCA signals were normalized to total cell count and then these normalized values were used to calculate the percent degradation relative to DMSO control and maximum inhibition. DC50s were calculated by using the GraphPad Prism4 program based on sigmoidal dose response equation ([Inhibitor] vs. normalized response−Variable slope).

[3] = target: SMARCA2 (Homo sapiens (Human), UniProt P51531); test: In Cell Western SMARCA2 degradation in NCIH1693 cells; type: cell-based; settings: for DC50: read-out: DC50 (SM2_H1693) SMARCA2 degradation potency; for Dmax: NCI-H1693, overnight, read-out: Dmax % (SM2_H1693) maximum SMARCA2 degradation within the concentrations tested
Sequence of SMARCA2 (P51531 whole entry): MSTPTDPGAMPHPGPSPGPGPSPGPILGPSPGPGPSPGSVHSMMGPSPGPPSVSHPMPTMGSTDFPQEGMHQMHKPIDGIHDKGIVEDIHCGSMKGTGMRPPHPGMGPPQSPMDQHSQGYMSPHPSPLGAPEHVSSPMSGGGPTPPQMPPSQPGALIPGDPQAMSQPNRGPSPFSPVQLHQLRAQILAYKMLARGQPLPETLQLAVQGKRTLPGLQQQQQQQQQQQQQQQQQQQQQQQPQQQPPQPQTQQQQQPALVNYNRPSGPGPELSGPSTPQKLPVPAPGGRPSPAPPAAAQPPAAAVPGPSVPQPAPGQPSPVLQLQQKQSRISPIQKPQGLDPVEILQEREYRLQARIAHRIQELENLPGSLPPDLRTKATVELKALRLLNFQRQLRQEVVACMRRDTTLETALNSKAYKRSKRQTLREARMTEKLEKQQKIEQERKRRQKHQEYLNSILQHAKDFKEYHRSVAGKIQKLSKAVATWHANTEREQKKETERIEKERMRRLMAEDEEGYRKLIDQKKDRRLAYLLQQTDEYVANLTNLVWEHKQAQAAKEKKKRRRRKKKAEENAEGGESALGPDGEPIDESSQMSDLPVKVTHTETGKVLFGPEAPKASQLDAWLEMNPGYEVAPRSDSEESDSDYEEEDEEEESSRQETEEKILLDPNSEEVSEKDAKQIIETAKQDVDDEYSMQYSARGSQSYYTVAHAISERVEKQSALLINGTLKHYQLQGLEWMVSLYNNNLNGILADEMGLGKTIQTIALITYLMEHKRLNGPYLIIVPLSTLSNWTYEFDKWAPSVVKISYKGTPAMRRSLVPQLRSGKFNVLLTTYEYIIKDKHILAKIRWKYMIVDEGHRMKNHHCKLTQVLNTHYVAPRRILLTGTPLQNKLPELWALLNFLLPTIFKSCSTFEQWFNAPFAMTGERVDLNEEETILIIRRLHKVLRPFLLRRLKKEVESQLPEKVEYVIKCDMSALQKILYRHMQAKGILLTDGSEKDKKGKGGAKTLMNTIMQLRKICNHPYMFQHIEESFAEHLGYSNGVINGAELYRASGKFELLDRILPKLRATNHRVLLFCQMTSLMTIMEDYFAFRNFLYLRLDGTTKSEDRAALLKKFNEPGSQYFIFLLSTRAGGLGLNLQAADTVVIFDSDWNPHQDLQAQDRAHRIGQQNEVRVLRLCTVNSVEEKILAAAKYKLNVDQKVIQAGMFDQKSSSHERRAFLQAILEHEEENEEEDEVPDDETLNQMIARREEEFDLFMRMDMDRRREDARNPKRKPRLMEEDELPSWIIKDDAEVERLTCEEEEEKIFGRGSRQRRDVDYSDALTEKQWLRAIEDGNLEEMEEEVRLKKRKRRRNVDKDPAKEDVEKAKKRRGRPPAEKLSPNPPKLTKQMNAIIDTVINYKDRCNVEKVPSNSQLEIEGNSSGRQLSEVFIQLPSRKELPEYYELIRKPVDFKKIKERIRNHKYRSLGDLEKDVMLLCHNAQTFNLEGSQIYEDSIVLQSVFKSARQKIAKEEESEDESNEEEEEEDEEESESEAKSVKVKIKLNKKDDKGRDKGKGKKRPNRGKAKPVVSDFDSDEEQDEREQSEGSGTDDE
Experimental: as §1, §2, §3, §4

[4] = target: bromo domain of SMARCA4 protein (Homo sapiens (Human), UniProt P40337+P51532); test: SMARCA4 bromodomain ternary binding TR-FRET assay (with VCB); settings: with saturating VCB (5 μM); read-out: IC50 (SM4_T) ternary binding potency in SMARCA4 FRET assay
Sequence of bromo domain of SMARCA4 protein (P51532 whole entry, looked up, the tested form may be a part): as the sequence (P51532 whole entry) above
Sequence of bromo domain of SMARCA4 protein (P40337 whole entry, looked up, the tested form may be a part): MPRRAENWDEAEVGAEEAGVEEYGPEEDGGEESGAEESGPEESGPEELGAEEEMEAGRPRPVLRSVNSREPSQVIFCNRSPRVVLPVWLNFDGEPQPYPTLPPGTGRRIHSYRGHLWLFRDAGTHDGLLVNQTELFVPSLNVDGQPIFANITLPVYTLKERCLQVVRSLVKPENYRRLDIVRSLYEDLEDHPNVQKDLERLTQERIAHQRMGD
Sequence of bromo domain of SMARCA4 protein (Q15370 whole entry partner, looked up, the tested form may be a part): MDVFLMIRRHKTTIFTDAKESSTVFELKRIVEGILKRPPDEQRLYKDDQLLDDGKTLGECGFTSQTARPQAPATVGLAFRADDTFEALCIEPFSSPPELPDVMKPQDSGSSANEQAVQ
Sequence of bromo domain of SMARCA4 protein (Q15369 whole entry partner, looked up, the tested form may be a part): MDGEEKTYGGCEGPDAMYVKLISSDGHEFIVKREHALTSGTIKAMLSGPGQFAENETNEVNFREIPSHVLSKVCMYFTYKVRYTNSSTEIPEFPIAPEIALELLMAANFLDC
Experimental: Recombinant bromo domain of SMARCA4 protein, was purchased from Active Motif (31401). The inhibitory activity of compounds was evaluated in vitro using TR-FRET assay with white 384-well low volume microplate (PerkinElmer ProxiPlate Plus), in which the compound competes the same binding site with the ligand, and thus lead to dose-dependent TR-FRET signal reduction. The cooperativity of the compounds for ternary complex formation with E3 ligase was evaluated in the absence or presence of saturating concentrations of VCB. Testing compounds were dissolved in DMSO at 10 mM and tested in 9-point IC50 mode. The assay mixture was prepared by mixing SMARCA4 (20 nM final), biotinylated probe (25 nM final), and assay buffer or VCB (5 μM) in 1×AlphaLISA Epigenetics Buffer (PerkinElmer AL008F) with 1 mM TCEP. The compounds of interest in DMSO were added to each well in 3-fold serial dilution by dispenser (TECAN D300E). and incubate for 20 minutes at room temperature before addition of detection reagents, Lance Eu W1024 anti-6×His (0.6 nM final, PerkinElmer AD0110) and Streptavidin Surelight APC (6 nM final, PerkinElmer CR130-100). The plate was then sealed and further incubated at 4° C. overnight in dark, and then was read by Envision multimode plate reader (PerkinElmer, 2102-0010). The ratio of florescence signal at 665/620 was used in data analysis. Percentage inhibition was calculated by % inhibition=100×(FDMSO-F)/(FDMSO-FPC), in which FDMSO is DMSO control, and FPC is positive control. IC50 values were determined from dose response curve by fitting the percent inhibition against compound concentration using GraphPad Prism software.

| Structure (SMILES) | IC50 [1] | DC50 ([2]; H520 cells, overnight) | DC50 ([3]; H1693 cells, overnight) | Dmax [3] | IC50 [4] | Dmax ([2]; NCI-H520, overnight, read-out: Dmax % (SM4_H520) maximum SMARCA4 degradation within the concentrations tested) | Dmax % (SM4_H520) maximum SMARCA4 degradation within the concentrations tested ([2]; H520 cells, overnight) | Dmax % (SM2_H1693) maximum SMARCA2 degradation within the concentrations tested ([3]; H1693 cells, overnight) |
| --- | --- | --- | --- | --- | --- | --- | --- | --- |
| Cc1ncsc1-c1ccc([C@H](C)NC(=O)[C@@H]2C[C@@H](O)CN2C(=O)[C@@H](NC(=O)CN2CCN3c4cc(-c5ccccc5O)nnc4NCC3C2)C(C)(C)C)cc1 (single isomer, unassigned) [Example 1b] | 100 to 1000 nM | 100 to 1000 nM | < 100 nM | > 75% | < 100 nM |  |  |  |
| Cc1scnc1-c1ccc(CNC(=O)[C@@H]2C[C@@H](O)CN2C(=O)[C@@H](NC(=O)CN2CCN3c4cc(-c5ccccc5O)nnc4NCC3C2)C(C)(C)C)cc1 (single isomer, unassigned) [Example 2a] | 100 to 1000 nM | 1000 to 10000 nM | 100 to 1000 nM | > 75% | 100 to 1000 nM | 50 to 75% |  |  |
| Cc1scnc1-c1ccc(CNC(=O)[C@@H]2C[C@@H](O)CN2C(=O)[C@@H](NC(=O)CN2CCN3c4cc(-c5ccccc5O)nnc4NCC3C2)C(C)(C)C)cc1 (single isomer, unassigned) [Example 2b] | 1000 to 10000 nM | ≥ 10000 nM | 1000 to 10000 nM |  | < 100 nM |  | C (C = Dmax <= 50%) | A (A = Dmax > 75%) |
